Laboratory results reported in PMC7525151 (Frontiers in Microbiology, 2020).

Tests used:
[1] = biological target: T1, CmFUM (Cyanidioschyzon merolae, UniProt M1VAI8); assay: A240 absorbance, Michaelis-Menten fit; type: biochemical; details: fumarate hydration; 100 mM Tris-HCl pH 7.5; 52 °C
T1 construct: gene CYME_CMD058C; N-terminal GST tag (pGEX6P-1, BamHI-XhoI) kept; codon-optimized synthetic gene; E. coli BL21(DE3); glutathione-Sepharose purified

[2] = biological target: T2, TeFum (Thermosynechococcus vestitus, UniProt Q8DIP7); assay: A240 absorbance, Michaelis-Menten fit; type: biochemical; design: gene fumC; N-terminal GST tag (pGEX6P-1, BamHI-XhoI) kept; codon-optimized synthetic gene; E. coli BL21(DE3); glutathione-Sepharose purified; details: fumarate hydration; 100 mM Tris-HCl pH 7.0; 50 °C
T2 sequence (Q8DIP7 whole entry): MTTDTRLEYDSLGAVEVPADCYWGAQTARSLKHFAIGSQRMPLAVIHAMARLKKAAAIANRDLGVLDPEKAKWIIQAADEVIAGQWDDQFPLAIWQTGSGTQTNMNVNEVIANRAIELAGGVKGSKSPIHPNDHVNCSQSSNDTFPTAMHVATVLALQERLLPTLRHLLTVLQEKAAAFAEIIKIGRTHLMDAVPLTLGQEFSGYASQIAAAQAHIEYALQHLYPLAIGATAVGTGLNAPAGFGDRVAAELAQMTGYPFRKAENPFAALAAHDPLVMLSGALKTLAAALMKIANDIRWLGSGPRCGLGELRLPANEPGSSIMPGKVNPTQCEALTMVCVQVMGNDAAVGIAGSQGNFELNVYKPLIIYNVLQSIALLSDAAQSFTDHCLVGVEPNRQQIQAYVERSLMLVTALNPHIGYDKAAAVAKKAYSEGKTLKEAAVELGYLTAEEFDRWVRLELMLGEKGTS

[3] = biological target: T2, TeFum; assay: relative activity with effector, A240 absorbance; design: gene fumC; details: activator in the fumarate direction; 0.14 mM fumarate, pH 7.0, 50 °C; sodium salt

T1 sequence (M1VAI8 1-553): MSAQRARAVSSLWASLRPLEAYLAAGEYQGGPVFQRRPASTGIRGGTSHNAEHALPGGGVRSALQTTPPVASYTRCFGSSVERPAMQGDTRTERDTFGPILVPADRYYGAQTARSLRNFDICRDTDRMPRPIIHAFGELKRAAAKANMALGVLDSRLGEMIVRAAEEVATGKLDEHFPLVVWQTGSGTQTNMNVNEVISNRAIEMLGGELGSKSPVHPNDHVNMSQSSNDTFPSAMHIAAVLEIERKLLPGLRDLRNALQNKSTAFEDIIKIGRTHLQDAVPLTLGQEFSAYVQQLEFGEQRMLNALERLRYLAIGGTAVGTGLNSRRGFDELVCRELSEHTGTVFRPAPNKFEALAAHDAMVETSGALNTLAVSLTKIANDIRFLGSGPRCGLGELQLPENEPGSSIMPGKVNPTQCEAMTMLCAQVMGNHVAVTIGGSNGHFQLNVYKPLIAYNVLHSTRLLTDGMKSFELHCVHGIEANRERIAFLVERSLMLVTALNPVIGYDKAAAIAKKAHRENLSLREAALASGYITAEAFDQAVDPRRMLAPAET

| Km [1] [µM] | Km [2] [µM] | SMILES | relative activity [3] |
| --- | --- | --- | --- |
| 270 ± 50 | 140 ± 20 | O=C(O)/C=C/C(=O)O [fumarate] | – |
| – | – | CC(=O)C(=O)O [pyruvate] | pyruvate increased the TeFum activity for fumarate (Figure 4B). |
